Assay results from US6204415A, “Triazole derivative or salt thereof, preparation process thereof and pharmaceutical containing said compound as an effective ingredient” (SSP Co., Ltd., priority 1997, dated 2001).
In brackets after ≈: the same amount, converted by molar mass.

Tests used:
Candida albicans = assay: Test 1: Action against Candida albicans (in vitro), suppression of mycelial type growth; assay type: cell-based, Candida albicans ATCC 44859; conditions: ATCC44859, C. albicans ATCC 44859, 10% fetal-bovine-serum added MEM, 37° C., 24 hours, CO2 incubator, read-out: Terminal point (minimum medicament concentration permitting the apparent suppression of mycerial type growth)
Experimental: Test 1: Action Against Candida albicans (in vitro)
The resulting mixture was incubated at 37° C. for 24 hours in a CO2 gas incubator. After incubation, a morphological change of C. albicans was observed under an inverted microscope. The minimum medicament concentration permitting the apparent suppression of mycerial type growth compared with that of a medicament-free control was designated as a terminal point (ng/ml).

Aspergillus fumigatus = assay: Test 2: Action against Aspergillus fumigatus (in vitro), MIC; assay type: cell-based, Aspergillus fumigatus IFM 40808; conditions: A. fumigatus IFM 40808, MOPS-containing RPMI 1640, pH 7, almar Blue, 35° C., 48 hours
Experimental: Test 2: Action Against Aspergillus fumigatus (in vitro)
They were incubated at 35° C. for 48 hours. Judgment was made visually and the minimum medicament concentration not permitting a change into red (the medium maintained blue color) was designated as an MIC value (μg/ml).

C. albicans IFM 40009 = assay: Test 3: Action against Candida albicans (in vivo), systemic infection in mice; conditions: i.v. C. albicans 3.0×10^6 cells/mouse, oral 1.25 mg/kg each, four times; for Surviving mice on Day 14 (number of surviving mice/total number in group): Day 14, control 0/11; for Average Survival days: Kaplan-Meier method (Cox mantel test), control 4.5
Experimental: Test 3: Action Against Candida albicans (in vivo)
After 4-week-old, male, ICR (CRJ: CD-1) mice were fasted for 6 hours, C. albicans IFM 40009 was inoculated to the tail vein of each of the mice to give an amount of 3.0×10^6 cells/mouse, whereby infection was caused. A control group consisted of 11 mice, while a medicament-administered group consisted of 5 mice. The medicament dissolved in 20% polyethylene glycol was orally administered 1 hour after the inoculation of the fungus and then consecutively once a day 24 hours after the inoculation, four times in total, at 1.25 mg/kg each. The survival condition on Day 14 after the infection was compared. In addition, the survival days of the control group and the medicament-administered group were detected by the Kaplan-Meier method (Cox mantel test). Incidentally, Fluconazole was employed as a medicament for comparison.

SMILES	minimal effective concentration (Candida albicans)	MIC (Aspergillus fumigatus)	Surviving mice on Day 14 (number of surviving mice/total number in group) (C. albicans IFM 40009)	Average Survival days (C. albicans IFM 40009)
CCS(=O)(=O)C(F)(F)C(O)(Cn1cncn1)c1ccc(F)cc1F (racemic) [Example 15, 2-(2,4-difluorophenyl)-1-(ethylsulfonyl) -1,1-difluoro-3-(1H-1,2,4-triazole-1-yl)-2-propanol]	0.0313 µg/mL	8 µg/mL (≈ 21.8 µM)	4/5	14.00 days
CCS(=O)(=O)C(F)(F)C(O)(Cn1cncn1)c1ccc(F)cc1F (single isomer, unassigned; (-)) [Example 21(2), (-)-2-(2,4-difluorophenyl)-1-(ethylsulfonyl)-1,1-difluoro-3-(1H-1,2,4-triazol-1-yl)-2-propanol]	0.0156 µg/mL	4 µg/mL (≈ 10.9 µM)		
CCS(=O)(=O)C(F)(F)C(O)(Cn1cncn1)c1ccc(F)cc1 (single isomer, unassigned; (-)) [Example 22(2), (-)-1-(Ethylsulfonyl)-1,1-difluoro-2-(4-fluorophenyl)-3-(1H-1,2,4-triazol-1-yl)-2-propanol]	0.0156 µg/mL	8 µg/mL (≈ 22.9 µM)		
CCSC(F)(F)C(O)(Cn1cncn1)c1ccc(F)cc1F (stereo not drawn) [Example 9, 2-(2,4-difluorophenyl)-1-(ethylthio)-1,1-difluoro-3-(1H-1,2,4-triazol-1-yl)-2-propanol]	0.0078 µg/mL	2 µg/mL (≈ 5.96 µM)		
CCSC(F)(F)C(O)(Cn1cncn1)c1ccc(F)cc1 (stereo not drawn) [Example 10, 1-(ethylthio)-1,1-difluoro-2-(4-fluorophenyl)-3-(1H-1,2,4-triazol-1-yl)-2-propanol]	0.0313 µg/mL	8 µg/mL (≈ 25.2 µM)		
CCSC(F)(F)C(O)(Cn1cncn1)c1ccc(C(F)(F)F)cc1 (stereo not drawn) [Example 11, 1-(ethylthio)-1,1-difluoro-2-(4-trifluoromethylphenyl)-3-(1H-1,2,4-triazol-1-yl)-2-propanol]	0.0078 µg/mL	16 µg/mL (≈ 43.6 µM)		
CCSC(F)(F)C(O)(Cn1cncn1)c1ccc(Cl)cc1Cl (stereo not drawn) [Example 12, 2-(2,4-dichlorophenyl)-1-(ethylthio)-1,1-difluoro-3-(1H-1,2,4-triazol-1-yl)-2-propanol]	0.0039 µg/mL	1 µg/mL (≈ 2.72 µM)		
CCSC(F)(F)C(Cn1cncn1)(OC)c1ccc(F)cc1F (stereo not drawn) [Example 13, 1-[2-(2,4-difluorophenyl)-3-ethylthio-3,3-difluoro-2-methoxypropyl]-1H-1,2,4-triazole]	0.0313 µg/mL	8 µg/mL (≈ 22.9 µM)		
CCS(=O)(=O)C(F)(F)C(O)(Cn1cncn1)c1ccc(Cl)cc1Cl (stereo not drawn) [Example 18, 2-(2,4-dichlorophenyl)-1-(ethylsulfonyl)-1,1-difluoro-3-(1H-1,2,4-triazol-1-yl)-2-propanol]	0.0156 µg/mL	8 µg/mL (≈ 20 µM)		
OC(Cn1cncn1)(Cn1cncn1)c1ccc(F)cc1F [Fluconazole, reference compound]	0.25 µg/mL	> 128 µg/mL	1/5	11.0 days
